In brackets after ≈: the same amount, converted by molar mass.
Test system: KB
Test: Cytotoxicity against human KB cells
Type: functional
Details: read-out: ED50 (the source's name)

C/C=C/c1cc(OC)c2c(c1)[C@H](C)[C@@H](c1ccc(O)c(OC)c1)O2 [LICARIN A]
EC50: 7 µg/mL (≈ 21.4 µM)

— ChEMBL document CHEMBL1151343, “Antitumor plants. X. Constituents of Nectandra rigida” (1980)
